# Experimental data published in US20230263822A1, “MODULATION OF FACTOR 11 EXPRESSION” (Ionis Pharmaceuticals, Inc., priority 2008, published 2023).
# Strand notation (5' to 3'): a small letter for the sugar, then the base; units joined by * are phosphorothioate-linked, units joined directly phosphodiester-linked; [ ] holds rarer units or linkages, { } end groups; capitals alone tell only the bases. e = 2'-O-(2-methoxyethyl) (MOE); [5mC] = 5-methylcytosine; d = 2'-deoxy (DNA)
# Tested on: human Factor 11 mRNA
# Experiment: Antisense inhibition of human Factor 11 in HepG2 cells, lipofectin, 75 nM (Example 1)
# Type: cell-based
# Conditions: 75 nM antisense oligonucleotide, ~24 h, relative to untreated control cells, gapmers targeted to SEQ ID NO: 1
# Method: Antisense oligonucleotides targeted to a Factor 11 nucleic acid were tested for their effects on Factor 11 mRNA in vitro. Cultured HepG2 cells at a density of 10,000 cells per well were transfected using lipofectin reagent with 75 nM antisense oligonucleotide. After a treatment period of approximately 24 hours, RNA was isolated from the cells and Factor 11 mRNA levels were measured by quantitative real time PCR. Factor 11 mRNA levels were adjusted according to total RNA content, as measured by RIBOGREEN. Results are presented as percent inhibition of Factor 11, relative to untreated control cells.
# The chimeric antisense oligonucleotides in Tables 1 and 2 were designed as 5-10-5 MOE gapmers. The gapmers are 20 nucleotides in length, wherein the central gap segment is comprised of 10 2′-deoxynucleotides and is flanked on both sides (in the 5′ and 3′ directions) by wings comprising 5 nucleotides each. Each nucleotide in the 5′ wing segment and each nucleotide in the 3′ wing segment has a 2′-MOE modification. The internucleoside linkages throughout each gapmer are phosphorothioate (P=S) linkages. All cytidine residues throughout each gapmer are 5-methylcytidines. “Target start site” indicates the 5′-most nucleotide to which the gapmer is targeted. “Target stop site” indicates the 3′-most nucleotide to which the gapmer is targeted. Each gapmer listed in Table 1 is targeted to SEQ TD NO: 1 (GENBANK Accession No. NM_000128.3) and each gapmer listed in Table 2 is targeted to SEQ TD NO: 2 (GENBANK Accession No. NT_022792.17, truncated from 19598000 to 19624000).
row,Substance,% inhibition [%]
1,412227 (antisense eA*eG*eT*eA*eT*dT*dT*dT*dA*dG*dT*dT*dG*dG*dA*eG*eA*eT*e[5mC]*e[5mC]) [compound 412227],75
2,412259 (antisense eT*eT*eT*eT*e[5mC]*dA*dG*dG*dA*dA*dA*dG*dT*dG*dT*eA*eT*e[5mC]*eT*eT) [compound 412259],37
3,413480 (antisense eA*eA*eG*eA*eA*dA*dT*d[5mC]*dA*dG*dT*dG*dT*d[5mC]*dA*eT*eG*eG*eT*eA) [compound 413480],71
4,412252 (antisense eT*eT*eA*eT*eG*dG*dT*dA*dA*dT*dT*d[5mC]*dT*dT*dG*eG*eA*e[5mC]*eT*e[5mC]) [compound 412252],39
5,413463 (antisense eG*eA*eG*eT*e[5mC]*dA*d[5mC]*dA*d[5mC]*dA*dT*dT*d[5mC]*dA*d[5mC]*e[5mC]*eA*eG*eA*eA) [compound 413463],74
6,413493 (antisense eT*eT*eT*e[5mC]*eT*dT*dG*dA*dA*d[5mC]*d[5mC]*d[5mC]*d[5mC]*dA*dA*eA*eG*eA*eA*eA) [compound 413493],65
7,412241 (antisense eT*eA*eT*eT*eA*dT*dT*dT*d[5mC]*dT*dT*dG*dA*dA*d[5mC]*e[5mC]*e[5mC]*e[5mC]*eA*eA) [compound 412241],41
8,412192 (antisense e[5mC]*eA*eG*e[5mC]*eA*dT*dA*dT*dT*dT*dG*dT*dG*dA*dA*eA*eG*eT*e[5mC]*eG) [compound 412192],44
9,412255 (antisense eG*e[5mC]*e[5mC]*eA*e[5mC]*dT*dA*d[5mC]*dT*dT*dG*dG*dT*dT*dA*eT*eT*eT*eT*e[5mC]) [compound 412255],38
10,412220 (antisense eT*eG*eG*eT*eA*dA*dA*dA*dT*dG*dA*dA*dG*dA*dA*eT*eG*eG*e[5mC]*eA) [compound 412220],58
11,413496 (antisense eG*eG*e[5mC]*eA*e[5mC]*dA*dG*dA*dT*d[5mC]*dA*dT*d[5mC]*dT*dT*eA*eT*eG*eG*eG) [compound 413496],72
12,413491 (antisense eT*eT*eA*eG*eG*dT*dG*dA*d[5mC]*dT*d[5mC]*dT*dA*d[5mC]*d[5mC]*e[5mC]*e[5mC]*eA*eT*eA) [compound 413491],73
13,412222 (antisense eA*eA*e[5mC]*eA*eA*dT*dA*dT*d[5mC]*d[5mC]*dA*dG*dT*dT*d[5mC]*eT*eT*e[5mC]*eT*e[5mC]) [compound 412222],5
14,413485 (antisense eT*eG*eG*eT*eG*dG*dT*dA*d[5mC]*dA*d[5mC]*dT*d[5mC]*dA*dT*eT*eA*eT*e[5mC]*e[5mC]) [compound 413485],68
15,413460 (antisense eT*eA*e[5mC]*e[5mC]*eT*dT*dG*dA*dG*dA*dG*dA*dA*dT*dT*eG*e[5mC]*eT*eT*eG) [compound 413460],40
16,412198 (antisense eT*eT*e[5mC]*eA*eG*dG*dA*d[5mC]*dA*d[5mC]*dA*dA*dG*dT*dA*eA*eA*e[5mC]*e[5mC]*eA) [compound 412198],21
17,412240 (antisense eT*eG*eA*eA*e[5mC]*d[5mC]*d[5mC]*d[5mC]*dA*dA*dA*dG*dA*dA*dA*eG*eA*eT*eG*eT) [compound 412240],32

row,Substance,% inhibition [%]
1,413475 (antisense eG*e[5mC]*e[5mC]*eA*eT*dT*d[5mC]*d[5mC]*dT*dG*dG*dG*dA*dA*dA*eA*eG*eA*eA*eG) [compound 413475],80
2,413495 (antisense eT*eT*eG*eG*e[5mC]*dT*dT*dT*d[5mC]*dT*dG*dG*dA*dG*dA*eG*eT*eA*eT*eT) [compound 413495],58
3,412229 (antisense eG*eT*eA*e[5mC]*eA*d[5mC]*dT*d[5mC]*dA*dT*dT*dA*dT*d[5mC]*d[5mC]*eA*eT*eT*eT*eT) [compound 412229],64
4,412230 (antisense eG*eA*eT*eT*eT*dT*dG*dG*dT*dG*dG*dT*dA*d[5mC]*dA*e[5mC]*eT*e[5mC]*eA*eT) [compound 412230],52
5,413484 (antisense e[5mC]*e[5mC]*eT*eT*eA*dA*dT*dG*dT*dG*dT*dA*dT*d[5mC]*d[5mC]*eA*eG*eA*eG*eA) [compound 413484],74
6,412238 (antisense e[5mC]*eG*e[5mC]*eA*eA*dA*dA*dT*d[5mC]*dT*dT*dA*dG*dG*dT*eG*eA*e[5mC]*eT*e[5mC]) [compound 412238],71
7,412193 (antisense eT*eG*eT*eG*eT*dA*dG*dG*dA*dA*dA*dT*dG*dG*dT*e[5mC]*eA*e[5mC]*eT*eT) [compound 412193],38
8,413499 (antisense eA*eT*e[5mC]*eA*eT*dT*dT*dT*dT*d[5mC]*dA*dG*dG*dA*dA*eA*eG*eT*eG*eT) [compound 413499],52
9,412257 (antisense e[5mC]*eT*eG*e[5mC]*eA*dA*dA*dA*dT*dG*dG*dT*dG*dA*dA*eG*eA*e[5mC]*eT*eG) [compound 412257],57
10,412249 (antisense e[5mC]*eA*eT*eT*e[5mC]*dA*d[5mC]*dA*d[5mC]*dT*dG*d[5mC]*dT*dT*dG*eA*eG*eT*eT*eT) [compound 412249],55
11,413461 (antisense eG*eT*e[5mC]*eA*eG*dA*dA*dA*dT*dA*dT*dA*d[5mC]*d[5mC]*dT*eT*eG*eA*eG*eA) [compound 413461],39
12,412226 (antisense eT*eT*eG*eA*eA*dG*dA*dA*dA*dG*d[5mC]*dT*dT*dT*dA*eA*eG*eT*eA*eA) [compound 412226],17
13,413470 (antisense eG*eT*eT*eA*eT*dA*dG*dT*dT*dT*dA*dT*dG*d[5mC]*d[5mC]*e[5mC]*eT*eT*e[5mC]*eA) [compound 413470],72
14,412216 (antisense eA*eA*eA*eG*eA*dT*dT*dT*d[5mC]*dT*dT*dT*dG*dA*dG*eA*eT*eT*e[5mC]*eT) [compound 412216],43
15,412202 (antisense eT*eT*eG*eG*eT*dG*dT*dG*dA*dG*d[5mC]*dA*dT*dT*dG*e[5mC]*eT*eT*eG*eA) [compound 412202],65
16,413489 (antisense e[5mC]*eA*e[5mC]*eT*eG*dG*dT*dT*dT*d[5mC]*d[5mC]*dA*dA*dT*dG*eA*eT*eG*eG*eA) [compound 413489],68
17,412237 (antisense eT*eG*eA*e[5mC]*eT*d[5mC]*dT*dA*d[5mC]*d[5mC]*d[5mC]*d[5mC]*dA*dT*dA*eG*eA*eA*eA*e[5mC]) [compound 412237],48

# Same assay, conditions: 75 nM antisense oligonucleotide, ~24 h, relative to untreated control cells, gapmers targeted to SEQ ID NO: 2
row,Substance,% inhibition [%]
1,413533 (antisense eA*eT*e[5mC]*e[5mC]*eA*dG*dT*dT*d[5mC]*dA*d[5mC]*d[5mC]*dA*dT*dT*eG*eG*eA*eG*eA) [compound 413533],48
2,413536 (antisense eT*eT*eA*eA*eT*dA*dT*dA*d[5mC]*dT*dG*d[5mC]*dA*dG*dA*eG*eA*eA*e[5mC]*e[5mC]) [compound 413536],37
3,413526 (antisense eG*eT*eA*eA*eA*dG*dT*dT*dT*dT*dA*d[5mC]*d[5mC]*dT*dT*eA*eA*e[5mC]*e[5mC]*eT) [compound 413526],47
4,413507 (antisense eT*eT*eT*e[5mC]*eA*dA*dG*d[5mC]*dT*d[5mC]*dA*dG*dG*dA*dT*eG*eG*eG*eA*eA) [compound 413507],55
5,413515 (antisense eG*eG*eT*eA*eT*d[5mC]*d[5mC]*dT*dG*dA*dG*dT*dG*dA*dG*eA*eT*e[5mC]*eT*eA) [compound 413515],36
6,413503 (antisense eA*eT*eA*e[5mC]*e[5mC]*dT*dA*dG*dT*dA*d[5mC]*dA*dA*dT*dG*eT*eA*eA*eA*eT) [compound 413503],29
7,413523 (antisense eT*e[5mC]*eA*eG*eT*dT*dT*dA*d[5mC]*d[5mC]*dT*dG*dG*dG*dA*eT*eG*e[5mC]*eT*eG) [compound 413523],61
8,413529 (antisense eT*eG*eT*eG*eT*dG*dG*dG*dT*d[5mC]*d[5mC]*dT*dG*dA*dA*eA*eT*eT*e[5mC]*eT) [compound 413529],52
9,413517 (antisense eA*eA*eA*eG*e[5mC]*dT*dA*dT*dT*dG*dG*dA*dG*dA*d[5mC]*eT*e[5mC]*eA*eG*eA) [compound 413517],51
10,413514 (antisense eT*eT*eT*eA*e[5mC]*dT*dA*dT*dG*dA*dA*dA*dA*dT*d[5mC]*eT*eA*eA*eA*eT) [compound 413514],5
11,413534 (antisense eT*eT*eT*eT*e[5mC]*d[5mC]*dA*dG*dA*dA*dG*dA*dG*dA*d[5mC]*eT*e[5mC]*eT*eT*e[5mC]) [compound 413534],31
12,413531 (antisense eG*eT*eA*e[5mC]*eA*d[5mC]*dT*d[5mC]*dT*dG*d[5mC]*dA*dA*d[5mC]*dA*eG*eA*eA*eG*e[5mC]) [compound 413531],47
